According to patent publication US8450305B2, “Macrocyclic compounds useful as inhibitors of kinases and HSP90” (Universite de Strasbourg, priority 2006, dated 2013):
pEC50: −log10 of the molar value. Where two headings read alike, the source gives them in different places.

Columns and labels:
[1] = rcm bond, Grubbs II, toluene, 2.0 mM, 80.0 °C
HSP90 = HSP90 (Homo sapiens, UniProt P07900); assay: HSP90 affinity, competition assay with geldanamycin; assay type: binding
HCC1954 tumor cells = assay: Cytotoxicity, MTS assay, HCC1954; assay type: cell-based; conditions: Homo sapiens, 72 hours
Procedure: (§1) Tumor cells were grown as adherent monolayers at 37° C. in a humidified atmosphere (5% CO2, 95% air). The culture medium was RPMI 1640 containing 2 mM L-glutamine (Ref BE12-702F, Cambrex, Verviers, Belgium) and supplemented with 10% fetal bovine serum (Ref DE14-801E, Cambrex). For experimental use, the adherent tumour cells were detached from the culture flask by a 5-minute treatment with trypsin-versene (Ref O2-007E, Cambrex), diluted in Hanks' medium without calcium or magnesium (Ref BE10-543F, Cambrex) and neutralized by addition of complete culture medium. Before use, cells were counted in a hemocytometer and their viability were assessed by 0.25% trypan blue exclusion. Mycoplasma detection was performed using the MycoAlert® Mycoplasma Detection Kit (Ref LT07-318, Cambrex) in accordance with the manufacturer instructions. The MycoAlert®Assay is a selective biochemical test that exploits the activity of mycoplasmal enzymes. The viable mycoplasma are lysed and the enzymes react with the MycoAlert® substrate catalyzing the conversion of ADP to ATP. By measuring the level of ATP in a sample both before and after the addition of the MycoAlert® substrate a ratio can be obtained which is indicative of the presence or absence of mycoplasma. The mycoplasma test was assayed in duplicate from the culture supernatants of the cell lines and compared to negative and positive controls (MycoAlert® Assay Control Set, Ref LT07-518, Cambrex) (Internal Standard Operating Procedure No TEC-007/002). Both HCC1954 and SK-BR-3 tumour cells (5,000 cells per well) were plated in 96-well flat-bottom microtitration plates (Ref 167008, Nunc, Dutscher, Brumath, France) and incubated at 37° C. for 24 hours before treatment in 190 μl of drug-free culture medium supplemented with 10% FBS. Both HCC1954 and SK-BR-3 tumour cell lines were incubated for 72 hours with […], in ¼ dilution steps, of the test substances (ranging from […]) to be tested as well as paclitaxel (ranging from 10^−7 to 10^−12 M). The cells (190 μl) will be incubated in a 200 μl final volume of culture medium supplemented with 10% FBS containing test substances at 37° C. under 5% CO2. One experiment is performed, each concentration being issued from quadruplicate. Control cells are treated with corresponding vehicle alone. At the end of treatments, the cytotoxic activity is evaluated by a MTS assay. […] Like MTT, MTS is bioreduced by cells into a formazan product that is directly soluble in culture medium without processing, unlike MTT.
(§2) At the end of the cells treatment, 40 μl of a 0.22 μm filtered freshly combined solution of MTS (20 ml at 2 mg/ml, Ref G1111A, Promega, Charbonnières, France) and PMS (1 ml at 0.92 mg/ml, Ref P9625, Sigma) in Dulbecco's Phosphate Buffered Saline (DPBS, Ref 17-513F, Cambrex), were added in each well. Culture plates were incubated for 2 h at 37° C. Absorbency (OD) will be measured at 490 nm in each well using VICTOR^3™ 1420 multilabeled counter (Wallac, PerkinElmer, Courtaboeuf, France).

SK-BR-3 tumor cells = assay: Cytotoxicity, MTS assay, SK-BR-3; assay type: cell-based; conditions: Homo sapiens, 72 hours
Procedure: as §1, §2

Row | SMILES | pEC50 (HCC1954 tumor cells) | pEC50 (SK-BR-3 tumor cells) | further results
1 | CCOCOc1cc(OCOCC)c2c(c1Cl)CC(=O)C=CCCC=CC[C@@H](C)OC2=O |  |  | ring closure, yield of all isomers ([1]; from C=CCCC=CC(=O)Cc1c(Cl)c(OCOCC)cc(OCOCC)c1C(=O)O[C@H](C)CC=C): 94%
2 | CCOCOc1cc2c(c(OCOCC)c1)C(=O)O[C@H](C)CC=CCCC=CC(=O)C2 |  |  | ring closure, yield of all isomers ([1]; from C=CCCC=CC(=O)Cc1cc(OCOCC)cc(OCOCC)c1C(=O)O[C@H](C)CC=C, 2 steps): 40%
3 | C[C@@H]1CC=CCC/C=C/C(=O)Cc2c(Cl)c(OCOCC[Si](C)(C)C)cc(OCOCC[Si](C)(C)C)c2C(=O)O1 |  |  | ring closure, yield of all isomers ([1]; from C=CCC/C=C/C(=O)Cc1c(Cl)c(OCOCC[Si](C)(C)C)cc(OCOCC[Si](C)(C)C)c1C(=O)O[C@H](C)CC=C, 12.0 h): 87%
4 | C[C@@H]1CC=CCC/C=C/C(=O)Cc2c(Cl)c(O[Si](C)(C)C(C)(C)C)cc(O[Si](C)(C)C(C)(C)C)c2C(=O)O1 |  |  | ring closure, yield of all isomers ([1]; from C=CCC/C=C/C(=O)Cc1c(Cl)c(O[Si](C)(C)C(C)(C)C)cc(O[Si](C)(C)C(C)(C)C)c1C(=O)O[C@H](C)CC=C, 12.0 h): 87%
5 | CCOCOc1cc(OCOCC)c2c(c1Cl)CC(=O)C=CCCC=CCC(C)OC2=O (centres unmarked) [2-112, 1-Chloro-2,4-bis-ethoxymethoxy-7-methyl-7,8,11,12-tetrahydro-16H-6-oxa-benzocyclotetradecene-5,15-dione] |  |  | affinity for / inhibition of HSP90 (in words) (HSP90): no affinity
6 | CCOCOc1cc2c(c(OCOCC)c1)C(=O)OC(C)CC=CCCC=CC(=O)C2 (centres unmarked) [2-120, 2,4-Bis-ethoxymethoxy-7-methyl-7,8,11,12-tetrahydro-16H-6-oxa-benzocyclotetradecene-5,15-dione] |  |  | affinity for / inhibition of HSP90 (in words) (HSP90): no affinity
7 | O=C1OCC/C=C/CC/C=C/C(=NOCc2ccccc2)Cc2c(Cl)c(O)cc(O)c21 [2a-3] | 5.52 | 5.35 | 
8 | O=C(CON=C1/C=C/CC/C=C/CCOC(=O)c2c(O)cc(O)c(Cl)c2C1)NCCO [2a-4] | < 5.00 | 5.12 | 
9 | O=C1OCC/C=C\CC/C=C/C(=NOCC(=O)N2CCCCC2)Cc2c(Cl)c(O)cc(O)c21 [2a-5] | 5.02 | 5.60 | 
10 | O=C1OCC/C=C/CCCC/C(=N/OCC(=O)N2CCCCC2)Cc2c(Cl)c(O)cc(O)c21 [2a-6] | 5.28 | < 5.00 | 
11 | C=CCC/C=C/C(Cc1c(Cl)c(O)cc(O)c1C(=O)OCCC=C)=NOCC(=O)N1CCCCC1 [2a-7] | < 5.00 | < 5.00 | 
12 | CNC(=O)CO/N=C1/C=C/CC/C=C/CCOC(=O)c2c(O)cc(O)c(Cl)c2C1 [2a-8] | < 5.00 | < 5.00 | 
13 | C[C@@H]1C/C=C/CC/C=C/C(=N/OCC(=O)N2CCCCC2)Cc2c(Cl)c(O)cc(O)c2C(=O)O1 [2a-9] | 6.05 | 6.35 | 
